From US11020374B2, “Sulcardine salts” (HUYA Bioscience International, LLC, priority 2019, dated 2021)
“And” between values parts separate entries of the source, which are not always exact repeats. Equal values may be shown once. Where a name gives a salt, the structure may show the parent alone.

Experiments:
[1] = One-week stability studies (40° C./75% RH, 80° C., ambient light) by XRPD and HPLC; assay type: physicochemical; conditions: for HPLC purity after stability experiment: 99% before; for stability by XRPD / appearance: one week at 80° C. and ambient humidity
Procedure: For all of the stability studies provided herein under the condition of 40° C. and 75% RH, samples were in an uncapped vial and stored in a stability chamber set to 40° C./75% RH. For the 80° C. studies, samples were in a sealed vial and placed in an oven set to 80° C. For the ambient light studies, the samples were in a sealed vial placed on a windowsill in the lab which was exposed to ambient natural and artificial light.

[2] = Dynamic vapor sorption (DVS) experiment; assay type: physicochemical; conditions: for crystalline form of the salt before the DVS experiment and afterwards: XRPD form before vs after DVS; for uptake of water (DVS): at 90% RH
[3] = cited from earlier work; for pKa 1: first pKa
[4] = Sulcardine salts PK analysis, oral capsule administration; assay type: in vivo; conditions: single oral capsule administration, fasted male Beagle dogs
Procedure: The pharmacokinetic objective of this study was to assess the exposure to sulcardine following oral capsule administration or intravenous (IV) infusion of sulcardine sulfate salt, sulcardine naphthoate salt, or sulcardine mono-edisylate salt (Form II) to male dogs during a pharmacokinetic study.
Non-naïve Beagle Dogs were fasted. Dosing formulations (oral [PO] capsule and intravenous [IV] infusion) were prepared on the day prior to dosing. The IV formulations were made in 10 mM Glycine (pH adjusted to 3.0±0.1), 3% Mannitol, qs in Sterile Water for Injection, USP were filtered through a 0.22 μm PVDF filter and stirred for at least 30 minutes prior to dosing. The capsule doses were encapsulated as active pharmaceutical ingredient powder into the appropriate number of […] gelatin capsules on the day prior to dosing.
Oral dosing was once on Day 1 by oral capsule administration; IV dosing was once on Day 1 by IV infusion over approximately 45 minutes (±2 minutes).
The blood samples for animals dosed orally were collected at 0.5, 1, 2, 3, 5, 8, 12, 18, 24, and 36 hours postdose. The blood samples for animals dosed IV were collected at approximately 0.33, 0.75 (end of infusion), 1.5, 3, 6, 9, 12, 18, and 24 hours post the start of infusion.
The blood samples were centrifuged under refrigerated (2° C. to 8° C.) conditions at 3,200 RPM for 10 minutes and the resulting plasma was divided into two aliquots (150 μL and remaining) then frozen and shipped for bioanalysis. Plasma samples were analyzed for concentrations of sulcardine by Citoxlab North America, Laval, Québec, Canada.
Individual sulcardine plasma concentration time profiles from sulcardine sulfate salt, sulcardine mono-edisylate salt, or sulcardine naphthoate salt treated animals were analyzed using model-independent methods (Gibaldi M, Perrier D. Pharmacokinetics. 2nd ed. New York: Marcel Dekker, Inc., 1982:409-17). Pharmacokinetic parameters were obtained/calculated for each animal on Day 1.

[5] = Solubility in 20 mM buffers (Example 3), slurried ca. 72 hr, HPLC concentration; assay type: physicochemical; conditions: pH 1.2
Procedure: 20 mM buffers were prepared to pH 1.2 (HCl/KCl), pH 3.0 (HCl/glycine), pH 4.0 (citric acid/sodium citrate) and pH 7.4 (potassium phosphate monobasic/NaOH). To 0.5 mL of each buffer, the appropriate salt was added to form a slurry. The pH of the slurry was measured and adjusted back to the desired pH (i.e., the initial pH of the buffer) if necessary using 0.2 M buffer components (e.g. 0.2 M HCl(aq)). […] After this time, if solid remained, the pH was again adjusted back to the desired pH if necessary using 0.2 M buffer components. If no solid remained, additional solid was added to reform the slurry before the pH was again adjusted back to the desired pH if necessary using 0.2 M buffer components. All samples were then slurried for a further 2 hr before being analysed by HPLC for concentration.

[6] = GVS (gravimetric vapor sorption) with post-GVS XRPD; assay type: physicochemical; conditions: 40-90-0-40% RH, 25° C., two cycles
Procedure: Form II was first observed during the GVS characterization of Form I. The material collected post-GVS analysis of Form I was analyzed by XRPD. […] The XRPD reference is “LNB15318-53-1-PostGVS” in FIG. 34.
Approximately 26 mg of Form I was placed into a mesh vapor sorption balance pan and loaded into an IGASorp Moisture Sorption Analyser balance by Hiden Analytical. The sample was subjected to a ramping profile from 40-90% relative humidity (RH) at 10% increments, maintaining the sample at each step until a stable weight had been achieved (98% step completion, minimum step length 30 minutes, maximum step length 60 minutes) at 25° C. After completion of the sorption cycle, the sample was dried using the same procedure to 0% RH, and finally taken back to the starting point of 40% RH. Two cycles were performed. The weight change during the sorption/desorption cycles were plotted, allowing for the hygroscopic nature of the sample to be determined. The material collected post-GVS analysis was analyzed by XRPD.

[7] = one week at 40° C. and 75% RH, uncapped vial
[8] = one week under ambient light conditions, sealed vial
[9] = one week under ambient light conditions
[10] = increase in relative humidity (RH) from about 10% to about 90%

With `COc1ccc(NS(=O)(=O)c2cc(CN3CCCC3)c(O)c(CN3CCCC3)c2)cc1.O=S(=O)(O)c1cccc2c(S(=O)(=O)O)cccc12` [Example 5, naphthalene-1,5-disulfonic acid salt of sulcardine] the “stability by XRPD” value [1, 7] was “unchanged”, the “HPLC purity after stability experiment” value ([1]; one week at 40° C. and 75% RH) was 99% and the “stability by XRPD / appearance” value ([1]; sealed vial) was “unchanged”. For the same molecule, the “HPLC purity after stability experiment” value ([1]; one week at 80° C.) was 99%, the “stability by XRPD” value [1, 8] was “unchanged” and the “HPLC purity after stability experiment” value [1, 9] was 99%. For the same molecule, the “crystalline form of the salt before the DVS experiment and afterwards” value (shortened to “crystalline form”) [2] was “the same”, the “uptake of water (DVS)” value [2] was “about 3.3%” and the mass increase ([2]; increase in relative humidity (RH) from about 5% to about 95%) was “about 3.3%”.

For `COc1ccc(S(=O)(=O)NCc2cc(CN3CCCC3)c(O)c(CN3CCCC3)c2)cc1` [Sulcardine free base comparator, 4-methoxy-N-(3,5-bis-(1-pyrrolidinylmethyl)-4-hydroxybenzyl)benzene sulfonamide], the “pKa 1” value [3] is given as 6.00, the “pKa 2” value ([3]; second pKa) is given as 10.57 and the “pKa 3” value ([3]; third pKa) is given as 11.65.

For `O=S(=O)(O)CCS(=O)(=O)O` [1,2-Ethanedisulfonic acid], the “pKa 1” value [3] is given as −2.06.

For `COc1ccc(NS(=O)(=O)c2cc(CN3CCCC3)c(O)c(CN3CCCC3)c2)cc1.O=S(=O)(O)c1ccc2ccccc2c1` [Example 10, naphthalene-2-sulfonic acid salt of sulcardine], the “stability by XRPD” value [1, 7] was “unchanged”, the “HPLC purity after stability experiment” value ([1]; one week at 40° C. and 75% RH) was 99% and 98% and the “stability by XRPD / appearance” value ([1]; sealed vial) was “changed into an orange gel”. The “stability by XRPD / appearance” value ([1]; sealed vial, listed as Example 9) was “unchanged”, the “HPLC purity after stability experiment” value ([1]; one week at 80° C.) was 90% and the “HPLC purity after stability experiment” value ([1]; one week at 80° C., listed as Example 9) was 99%. The “stability by XRPD” value [1, 8] was “unchanged by XRPD but had turned pale yellow”, the “stability by XRPD” value ([1]; one week under ambient light conditions, sealed vial, listed as Example 9) was “unchanged” and the “HPLC purity after stability experiment” value [1, 9] was 99% and 97%.

With `COc1ccc(NS(=O)(=O)c2cc(CN3CCCC3)c(O)c(CN3CCCC3)c2)cc1.COc1ccc(NS(=O)(=O)c2cc(CN3CCCC3)c(O)c(CN3CCCC3)c2)cc1.O=S(=O)(O)CCS(=O)(=O)O` [Example 14, hemi-ethane-1,2-disulfonic acid salt of sulcardine] the “stability by XRPD” value [1, 7] was “unchanged”, the “HPLC purity after stability experiment” value ([1]; one week at 40° C. and 75% RH) was 98% and the “stability by XRPD / appearance” value ([1]; sealed vial) was “unchanged”. For the same molecule, the “HPLC purity after stability experiment” value ([1]; one week at 80° C.) was 97%, the “stability by XRPD” value [1, 8] was “unchanged” and the “HPLC purity after stability experiment” value [1, 9] was 97%. For the same molecule, the “crystalline form” value [2] was “the same”, the “uptake of water (DVS)” value [2] was “about 0.5%” and the mass increase [2, 10] was “about 0.5%”.

`COc1ccc(S(=O)(=O)NCc2cc(CN3CCCC3)c(O)c(CN3CCCC3)c2)cc1` [sulfate salt, Sulcardine sulfate, reference compound] showed a Cmax ([4]; dog, plasma, group average) of 2820 ng/mL and a Tmax ([4]; dog, plasma, median, read-out: Tmax (median peak sulcardine plasma concentration)) of 2 h.

For `COc1ccc(NS(=O)(=O)c2cc(CN3CCCC3)c(O)c(CN3CCCC3)c2)cc1.O=C(O)c1ccc2ccccc2c1O` [Example 8, 1-hydroxy-2-naphthoic acid salt of sulcardine], the mass increase [2, 10] was “about 0.7%” and the “Crystallinity of the material in the solubility experiment” value [5] was “loses crystallinity”.

With `COc1ccc(S(=O)(=O)NCc2cc(CN3CCCC3)c(O)c(CN3CCCC3)c2)cc1` [Example 12, sulcardine hydrochloride] the “stability by XRPD” value [1, 7] was “unchanged”, the “HPLC purity after stability experiment” value ([1]; one week at 40° C. and 75% RH) was 98% and the “stability by XRPD / appearance” value ([1]; sealed vial) was “changed into an orange gel”. For the same molecule, the “HPLC purity after stability experiment” value ([1]; one week at 80° C.) was 90%, the “stability by XRPD” value [1, 8] was “unchanged” and the “HPLC purity after stability experiment” value [1, 9] was 99%. For the same molecule, the “crystalline form” value [2] was “the same”, the “uptake of water (DVS)” value [2] was “about 2.2%” and the mass increase [2, 10] was “about 2.2%”.

With `COc1ccc(NS(=O)(=O)c2cc(CN3CCCC3)c(O)c(CN3CCCC3)c2)cc1.O=S(=O)(O)CCS(=O)(=O)O` [Example 18, mono-ethane-1,2-disulfonic acid salt of sulcardine] the “Cmax of sulcardine in plasma” value ([4]; group average) was 4570 ng/mL and the “Tmax (median peak sulcardine plasma concentration)” value ([4]; median) was 0.5 h.

With `COc1ccc(NS(=O)(=O)c2cc(CN3CCCC3)c(O)c(CN3CCCC3)c2)cc1.O=S(=O)(O)CCS(=O)(=O)O` [Example 17, mono-ethane-1,2-disulfonic acid salt of sulcardine] the “XRPD of material collected post-GVS analysis” value [6] was “A new pattern (denoted Form II) was observed”.
